Measured values: patent publication US8263598B2, “Substituted sulfonamide compounds” (Gruenenthal GmbH, priority 2008, dated 2012)

What was measured:
[1] = molecular target: T1, human B1R receptor (hB1R) (Homo sapiens, UniProt P46663); assay: FLIPR Ca2+ assay on human bradykinin 1 receptor (CHO K1 hB1R cells); assay type: cell-based; settings: test substance 10 μM; CHO K1 cells with human B1R gene; agonist Lys-Des-Arg9-bradykinin 0.5 nM; compared to maximum achievable inhibition
T1 construct: host or cells: CHO K1 cells
T1 sequence (P46663 1-353): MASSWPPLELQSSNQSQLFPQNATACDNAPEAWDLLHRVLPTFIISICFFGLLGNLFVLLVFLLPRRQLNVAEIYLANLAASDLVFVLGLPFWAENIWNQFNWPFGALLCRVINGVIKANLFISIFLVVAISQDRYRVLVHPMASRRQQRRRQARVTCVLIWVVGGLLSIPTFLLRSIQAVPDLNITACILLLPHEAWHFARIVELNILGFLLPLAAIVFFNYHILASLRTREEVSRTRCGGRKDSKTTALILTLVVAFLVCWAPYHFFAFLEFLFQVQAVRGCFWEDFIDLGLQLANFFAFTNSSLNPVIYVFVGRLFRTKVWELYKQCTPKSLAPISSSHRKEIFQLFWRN
In short: (§1)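 Values are percent inhibition of agonist-evoked Ca²⁺ influx, measured by Fluo-4 fluorescence peak in FLIPR relative to maximum achievable inhibition. Compound at 10 μM was preincubated 10 min on B1R-transfected CHO K1 cells before challenge with 0.5 nM Lys-Des-Arg9-bradykinin (human) or 100 nM Des-Arg9-bradykinin (rat).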

[2] = molecular target: T2, B1R receptor of rats (rB1R) (Rattus norvegicus, UniProt P97583); assay: FLIPR Ca2+ assay on rat bradykinin 1 receptor (CHO K1 rB1R cells); assay type: cell-based; settings: test substance 10 μM; CHO K1 cells with B1R gene of rats; agonist Des-Arg9-bradykinin 100 nM; compared to maximum achievable inhibition
T2 construct: host or cells: CHO K1 cells
T2 sequence (P97583 1-337): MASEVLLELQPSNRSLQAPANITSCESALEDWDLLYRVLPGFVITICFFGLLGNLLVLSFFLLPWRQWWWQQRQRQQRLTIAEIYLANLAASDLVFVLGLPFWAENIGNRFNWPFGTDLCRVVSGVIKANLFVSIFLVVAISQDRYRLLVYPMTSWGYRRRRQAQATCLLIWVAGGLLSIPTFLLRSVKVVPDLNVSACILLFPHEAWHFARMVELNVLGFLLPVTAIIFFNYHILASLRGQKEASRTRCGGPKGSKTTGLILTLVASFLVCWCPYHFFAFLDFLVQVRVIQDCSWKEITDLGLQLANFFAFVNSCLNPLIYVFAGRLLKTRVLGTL
In short: as §1

Work on `Cc1cc(C)c(S(=O)(=O)N(C)CCOCC(=O)N2CCn3c(CN(C)C)ccc3C2Cc2ccccc2)c(C)c1` (centres unmarked) [Example 143, N-(2-(2-(1-benzyl-6-((dimethylamino)methyl)-3,4-dihydropyrrolo[1,2-a]pyrazin-2(1H)-yl)-2-oxoethoxy)ethyl)-N,2,4,6-tetramethylbenzenesulfonamide] yielded an inhibition at 10 µM [1] of 100% and an inhibition at 10 µM [2] of 99%.

`Cc1cc(C)c(S(=O)(=O)N(C)CCOCC(=O)N2CCn3c(CN(C)C)ccc3C2c2cccs2)c(C)c1` (centres unmarked) [Example 144, N-(2-(2-(6-((dimethylamino)methyl)-1-(thiophen-2-yl)-3,4-dihydropyrrolo[1,2-a]pyrazin-2(1H)-yl)-2-oxoethoxy)ethyl)-N,2,4,6-tetramethylbenzenesulfonamide] gave an inhibition at 10 µM [1] of 104% and an inhibition at 10 µM [2] of 104%.

Work on `CCC1c2ccc(CN(C)C)n2CCN1C(=O)COCCN(C)S(=O)(=O)c1c(C)cc(C)cc1C` (centres unmarked) [Example 145, N-(2-(2-(6-((dimethylamino)methyl)-1-ethyl-3,4-dihydropyrrolo[1,2-a]pyrazin-2(1H)-yl)-2-oxoethoxy)ethyl)-N,2,4,6-tetramethylbenzenesulfonamide] yielded an inhibition at 10 µM [1] of 104% and an inhibition at 10 µM [2] of 103%.

For `CCCC1c2cccn2CCN1C(=O)COCCN(C)S(=O)(=O)c1c(C)cc(C)cc1C` (centres unmarked) [Example 146, N,2,4,6-tetramethyl-N-(2-(2-oxo-2-(1-propyl-3,4-dihydropyrrolo[1,2-a]pyrazin-2(1H)-yl)ethoxy)ethyl)benzenesulfonamide], the inhibition at 10 µM [1] was 102% and the inhibition at 10 µM [2] was 102%.

With `Cc1cc(C)c(S(=O)(=O)N(C)CCOCC(=O)N2CCn3cccc3C2C(C)C)c(C)c1` (centres unmarked) [Example 147, N-(2-(2-(1-isopropyl-3,4-dihydropyrrolo[1,2-a]pyrazin-2(1H)-yl)-2-oxoethoxy)ethyl)-N,2,4,6-tetramethylbenzenesulfonamide] the inhibition at 10 µM [1] was 103% and the inhibition at 10 µM [2] was 103%.

Molecule `COc1cc(C)c(S(=O)(=O)N(C)CCOCC(=O)N2CCn3cccc3C2CCc2ccccc2)c(C)c1C` (centres unmarked) [Example 148, 4-methoxy-N,2,3,6-tetramethyl-N-(2-(2-oxo-2-(1-phenethyl-3,4-dihydropyrrolo[1,2-a]pyrazin-2(1H)-yl)ethoxy)ethyl)benzenesulfonamide] has an inhibition at 10 µM [1] of 100% and an inhibition at 10 µM [2] of 98%.

Molecule `COc1cc(C)c(S(=O)(=O)N(C)CCOCC(=O)N2CCn3c(CN4CCCCC4)ccc3C2c2ccccc2)c(C)c1C` (centres unmarked) [Example 149, 4-methoxy-N,2,3,6-tetramethyl-N-(2-(2-oxo-2-(1-phenyl-6-(piperidin-1-ylmethyl)-3,4-dihydropyrrolo[1,2-a]pyrazin-2(1H)-yl)ethoxy)ethyl)benzene-sulfonamide] has an inhibition at 10 µM [1] of 104% and an inhibition at 10 µM [2] of 104%.

For `COc1cc(C)c(S(=O)(=O)N(C)CCOCC(=O)N2CCn3c(CN4CCOCC4)ccc3C2c2ccccc2)c(C)c1C` (centres unmarked) [Example 150, 4-methoxy-N,2,3,6-tetramethyl-N-(2-(2-(6-(morpholinomethyl)-1-phenyl-3,4-dihydropyrrolo[1,2-a]pyrazin-2(1H)-yl)-2-oxoethoxy)ethyl)benzenesulfonamide], the inhibition at 10 µM [1] was 103% and the inhibition at 10 µM [2] was 103%.

`COc1cc(C)c(S(=O)(=O)N(C)CCOCC(=O)N2CCn3c(CN(C)C)ccc3C2Cc2ccccc2)c(C)c1C` (centres unmarked) [Example 151, N-(2-(2-(1-benzyl-6-((dimethylamino)methyl)-3,4-dihydropyrrolo[1,2-a]pyrazin-2(1H)-yl)-2-oxoethoxy)ethyl)-4-methoxy-N,2,3,6-tetramethylbenzene-sulfonamide] was tested, and the inhibition at 10 µM [1] was 102% and the inhibition at 10 µM [2] was 103%.

Work on `CCC1c2cccn2CCN1C(=O)COCCN(C)S(=O)(=O)c1c(C)cc(OC)c(C)c1C` (centres unmarked) [Example 152, N-(2-(2-(1-ethyl-3,4-dihydropyrrolo[1,2-a]pyrazin-2(1H)-yl)-2-oxoethoxy)ethyl)-4-methoxy-N,2,3,6-tetramethylbenzenesulfonamide] yielded an inhibition at 10 µM [1] of 102% and an inhibition at 10 µM [2] of 102%.
